In patent publication US11426375B2, “Substituted bisphenyl butanoic ester derivatives as NEP inhibitors” (NOVARTIS AG, priority 2019, dated 2022):

What was measured:
[1] = format: physicochemical; settings: pH 2
Protocol: It was stable at pH of 4.7 and pH of 6.8 up to 70° C. for 3 days.

[2] = set-up: species or system Cynomolgus Monkeys; settings: cynomolgus monkey, in vivo, po, 10 mg/kg
Protocol: A cross-over study design consisting of two groups with two animals per group was conducted to examine the pharmacokinetic properties of compound I-1 of the present disclosure.
Compound I-1 and AHU377 were administered to each group as follows: compound I-1 on Day 0 followed by AHU377 on Day 2 (Group 1), AHU377 on Day 0 followed by compound I-1 on Day 2 (Group 2). Each animal received a single 10 mg/kg (5 ml/kg) oral gavage dose of the specified study drug on the specified day. The animals were 2.5 to 3.5 years of age and weighed between 3.1 and 4.3 kg at the beginning of the study. Both compounds were formulated in 0.5% methylcellulose (400 cp) and 0.1% Tween 80 (w,v) in water. Blood samples for pharmacokinetics analysis were collected at t=0, 0.25, 0.5, 1, 2, 4, 8, 24 and 48 hours post dose on Day 0 and Day 2. Plasma was prepared by collecting whole blood samples into tubes containing K2EDTA and NaF (final concentrations: ˜1 mg/mL (K2EDTA) and ˜2 mg/mL (NaF)). These tubes were kept in an ice bath prior to centrifugation at approximately 2,000 rcf for 10 minutes at approximately 5° C. To each resultant plasma sample (target volume 200 μL), 4 μL of 50% phosphoric acid (v/v) was added.
[^13C4]-LBQ657 was added as an internal standard to the pharmacokinetic (PK) samples and calibration standards prior to analysis by LC-MS/MS. The LC-MS system consisted of an API6500+ mass spectrometer coupled to an Agilent 1290 HPLC system equipped with a CTC Pal autosampler. The mass spectrometer was operated in the positive ion mode.

[3] = Hygroscopicity, weight gain at 90% RH; format: physicochemical; settings: after exposure to 90% RH
Excerpt: The weight gain of compound I-1 after exposure to 90% RH (relatively humidity) was 0.34%, while that of AHU377 under the same conditions was 3.4%. […] On the other hand, AHU377 is a wax-like solid, which needs to be properly processed before further pharmaceutical processing such as weighing, dispensing and filling.

SMILES: CCOC(=O)[C@H](C)C[C@@H](Cc1ccc(-c2ccccc2)cc1)NC(=O)CCC(=O)N[C@@H](CC(C)C)C(=O)O [Compound I-1, (4-(((2S,4R)-1-([1,1′-biphenyl]-4-yl)-5-ethoxy-4-methyl-5-oxopentan-2-yl)amino)-4-oxobutanoyl)-L-leucine]
- degradation in solution ([1]; 1 day): 18.27%
- solution stability under acidic conditions [1]: unstable
- compound I-1 concentrations in plasma [2]: below the lower limit of quantitation
- tolerability [2]: well tolerated
- relative bioavailability compared to AHU377 based on AUC values ([2]; male): 72%
- relative bioavailability compared to AHU377 based on Cmax values ([2]; male): 30%
- weight gain (hygroscopicity) [3]: 0.34%
